Experiment [1] addresses T1, F508delCFTR in primary hBE cells with F508del/F508del CFTR mutation (Homo sapiens, UniProt P13569, DEL508-508).
T1 construct: cells isolated from CF patients with the homozygous mutation; endogenous in cells; host or cells: primary human bronchial epithelial (hBE) cells from F508del/F508del CF patients
Put plainly: Transepithelial Clamp Circuit on Human Bronchial Epithelial Cells Conductance Assay (hBE-TECC). The experiment is classed as cell-based. As to conditions: for EC50: primary hBE cells F508del/F508del, 18-24 hours at 37° C., equivalent short circuit current, 6 concentrations. From the text: Transepithelial Clamp Circuit on Human Bronchial Epithelial Cells Conductance Assay:
A cell based assay using the primary human bronchial epithelial cells (hBE) was used as a secondary assay to test novel F508delCFTR correctors for their activity on primary hBE cells with F508del/F508del CFTR mutation. The assay used a TECC-24 (Transepithelial Clamp Circuit for 24 wells) instrument that measures the functionality of the mutated channel by measuring the equivalent short circuit current (Ieq) generated by the polarized epithelial cells. The instrument works by measuring the transepithelial potential difference (Vt) and transepithelial resistance (Rt) in an open circuit format, and the Ieq is calculated by using Ohms law (Ieq=Vt/Rt). The assay was run in a 24-well format and all 24-wells were measured at the same time point giving a higher throughput for this assay.
Primary human bronchial epithelial (hBE) cells from F508del/F508delCFTR patients were expanded from 1×10^6 to 250×10^6 cells (Neuberger T, Burton B, Clark H and VanGoor F; Cystic Fibrosis, Methods in Mole Biol 741; eds. Amaral M D and Kunzelmann K, 2011). For this purpose, cells isolated from CF patients with the homozygous mutation were seeded onto 24 well Corning (Cat #3378) filter plates that were coated with 3T3 conditioned media and grown at an air-liquid interface for 35 days using an Ultroser® G supplemented differentiation media. Apical surface mucus was removed 72 hours before the experiment using 3 mM dithiothreitol (DTT) in phosphate buffered saline (PBS). The apical surface was washed again 24 hours before the experiment using PBS. The cells were incubated with the desired dose response of the corrector compounds 18-24 hours at 37° C., 5% CO2. The corrector compounds are only added on the basolateral side of the epithelial cells.
On the day of measuring the corrector activity on the TECC, the cells were switched into a bicarbonate and serum free F-12 Coon's medium and allowed to equilibrate for 90 minutes in a CO2 free incubator. At the time of measurement, the apical and basolateral sides of the filter were bathed with the F-12 Coon's modification media (with 20 mM 4-(2-hydroxyethyl)-1-piperazineethanesulfonic acid (HEPES), pH 7.4 (using 1 M tris(hydroxymethyl)aminomethane (Tris)), and the measurements were made at 36.5° C. Transepithelial voltage (Vt) and transepithelial resistance (Rt) were measured using a 24 channel transepithelial current clamp (TECC-24). Current responses to the sequential addition of benzamil (apical 6 μM addition; for inhibiting epithelial ENaC channel), forskolin (apical and basolateral 10 μM addition; for activating the CFTR channel), control potentiator (N-(3-carbamoyl-5,5,7,7-tetramethyl-4,7-dihydro-5H-thieno[2,3-c]pyran-2-yl)-1H-pyrazole-5-carboxamide; apical and basolateral […] addition; for potentiating the CFTR channel) and bumetanide (basolateral 20 μM addition; for inhibiting the Na:2Cl:K co-transporter, an indirect measure of inhibiting the Cl-secretion driven by CFTR channel) were measured.
All plates contained negative controls (dimethyl sulfoxide, DMSO) which coupled with the control potentiator (N-(3-carbamoyl-5,5,7,7-tetramethyl-4,7-dihydro-5H-thieno[2,3-c]pyran-2-yl)-1H-pyrazole-5-carboxamide) sets the null response and positive controls (3 μM of 3-[(2R,4R)-4-({[1-(2,2-difluoro-1,3-benzodioxol-5-yl)cyclopropyl]carbonyl}amino)-7-methoxy-3,4-dihydro-2H-chromen-2-yl]benzoic acid) coupled with the control potentiator sets the 100% response to measure the correction of the mutated CFTR channel. The maximum percent activity is reported relative to the positive control value.
The % activity measured at each of the 6 test concentrations of the test compound was normalized to the on-plate positive control using the following formula: % activity=[[…]]*100 […]

The target of experiment [2] is T2, F508delCFTR cell surface expression in CFBE41o-F508delCFTR-HRP cells (Homo sapiens, UniProt P13569, DEL508-508).
T2 construct: fused on or other part: Horseradish peroxidase (HRP) reporter inserted in the fourth exofacial (extracellular) loop of CFTR; expression is doxycycline-inducible
T2 sequence (P13569 with tags, fused parts or gaps DEL508-508 limits assumed): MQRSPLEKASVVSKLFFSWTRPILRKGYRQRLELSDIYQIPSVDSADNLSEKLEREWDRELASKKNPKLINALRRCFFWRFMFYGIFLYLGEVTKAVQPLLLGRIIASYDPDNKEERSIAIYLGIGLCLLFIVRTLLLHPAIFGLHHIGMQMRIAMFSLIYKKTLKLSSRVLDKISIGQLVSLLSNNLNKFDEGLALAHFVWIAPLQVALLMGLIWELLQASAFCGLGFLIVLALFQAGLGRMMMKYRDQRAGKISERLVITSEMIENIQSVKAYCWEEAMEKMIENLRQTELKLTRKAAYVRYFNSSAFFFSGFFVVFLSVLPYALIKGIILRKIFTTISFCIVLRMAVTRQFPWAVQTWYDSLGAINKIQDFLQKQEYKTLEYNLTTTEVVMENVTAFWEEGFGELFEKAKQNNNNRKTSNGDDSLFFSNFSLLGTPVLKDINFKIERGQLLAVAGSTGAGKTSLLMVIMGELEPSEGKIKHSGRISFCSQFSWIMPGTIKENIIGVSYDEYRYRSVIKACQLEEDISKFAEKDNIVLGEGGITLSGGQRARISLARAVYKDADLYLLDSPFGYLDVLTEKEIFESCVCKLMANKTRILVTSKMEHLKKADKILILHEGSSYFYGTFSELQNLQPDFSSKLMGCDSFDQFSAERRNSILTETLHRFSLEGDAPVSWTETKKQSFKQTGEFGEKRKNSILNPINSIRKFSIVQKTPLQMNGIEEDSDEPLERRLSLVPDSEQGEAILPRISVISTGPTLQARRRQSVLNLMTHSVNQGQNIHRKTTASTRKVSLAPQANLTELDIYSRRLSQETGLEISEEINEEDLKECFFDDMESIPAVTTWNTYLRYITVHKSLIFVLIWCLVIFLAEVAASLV
T2 sequence (P13569 919-1480 limits assumed, stated change not applied): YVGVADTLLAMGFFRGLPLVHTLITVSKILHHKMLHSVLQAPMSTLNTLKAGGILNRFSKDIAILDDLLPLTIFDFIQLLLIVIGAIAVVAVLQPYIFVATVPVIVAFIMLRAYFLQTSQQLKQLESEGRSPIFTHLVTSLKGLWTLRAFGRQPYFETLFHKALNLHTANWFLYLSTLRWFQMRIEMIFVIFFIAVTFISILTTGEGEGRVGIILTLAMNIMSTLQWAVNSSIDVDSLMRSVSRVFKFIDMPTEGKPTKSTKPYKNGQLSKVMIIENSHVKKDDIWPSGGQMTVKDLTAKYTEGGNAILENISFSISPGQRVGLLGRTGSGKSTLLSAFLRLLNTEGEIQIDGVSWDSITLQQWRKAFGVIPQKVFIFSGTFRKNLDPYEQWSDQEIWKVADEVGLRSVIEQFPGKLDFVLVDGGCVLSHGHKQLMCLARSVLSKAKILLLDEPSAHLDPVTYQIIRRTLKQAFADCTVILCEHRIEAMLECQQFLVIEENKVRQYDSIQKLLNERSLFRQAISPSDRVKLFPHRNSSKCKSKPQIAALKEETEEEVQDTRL
Put plainly: Cell Surface Expression-Horse Radish Peroxidase (CSE-HRP) Assay. In kind it is cell-based. As to conditions: for EC50: CFBE41o-F508delCFTR-HRP cells, 18-24 hours at 33° C., 8-point curve, highest concentration 20 μM; for Maximum % activity (%): maximum at any tested concentration, normalized to on-plate positive control (3 μM). The procedure, abridged: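 Correctors incubated 18-24 h at 33 °C on doxycycline-induced (0.5 μg/mL, 72 h) CFBE41o-F508delCFTR-HRP cells, 3-fold series from 20 μM. After DPBS washes, luminol luminescence read; activity expressed relative to DMSO and a 3 μM positive control, EC50 fitted from triplicate plates.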

[3] abbreviates: relative to positive control (3 μM) coupled with control potentiator.

T1 sequence (P13569 with tags, fused parts or gaps DEL508-508): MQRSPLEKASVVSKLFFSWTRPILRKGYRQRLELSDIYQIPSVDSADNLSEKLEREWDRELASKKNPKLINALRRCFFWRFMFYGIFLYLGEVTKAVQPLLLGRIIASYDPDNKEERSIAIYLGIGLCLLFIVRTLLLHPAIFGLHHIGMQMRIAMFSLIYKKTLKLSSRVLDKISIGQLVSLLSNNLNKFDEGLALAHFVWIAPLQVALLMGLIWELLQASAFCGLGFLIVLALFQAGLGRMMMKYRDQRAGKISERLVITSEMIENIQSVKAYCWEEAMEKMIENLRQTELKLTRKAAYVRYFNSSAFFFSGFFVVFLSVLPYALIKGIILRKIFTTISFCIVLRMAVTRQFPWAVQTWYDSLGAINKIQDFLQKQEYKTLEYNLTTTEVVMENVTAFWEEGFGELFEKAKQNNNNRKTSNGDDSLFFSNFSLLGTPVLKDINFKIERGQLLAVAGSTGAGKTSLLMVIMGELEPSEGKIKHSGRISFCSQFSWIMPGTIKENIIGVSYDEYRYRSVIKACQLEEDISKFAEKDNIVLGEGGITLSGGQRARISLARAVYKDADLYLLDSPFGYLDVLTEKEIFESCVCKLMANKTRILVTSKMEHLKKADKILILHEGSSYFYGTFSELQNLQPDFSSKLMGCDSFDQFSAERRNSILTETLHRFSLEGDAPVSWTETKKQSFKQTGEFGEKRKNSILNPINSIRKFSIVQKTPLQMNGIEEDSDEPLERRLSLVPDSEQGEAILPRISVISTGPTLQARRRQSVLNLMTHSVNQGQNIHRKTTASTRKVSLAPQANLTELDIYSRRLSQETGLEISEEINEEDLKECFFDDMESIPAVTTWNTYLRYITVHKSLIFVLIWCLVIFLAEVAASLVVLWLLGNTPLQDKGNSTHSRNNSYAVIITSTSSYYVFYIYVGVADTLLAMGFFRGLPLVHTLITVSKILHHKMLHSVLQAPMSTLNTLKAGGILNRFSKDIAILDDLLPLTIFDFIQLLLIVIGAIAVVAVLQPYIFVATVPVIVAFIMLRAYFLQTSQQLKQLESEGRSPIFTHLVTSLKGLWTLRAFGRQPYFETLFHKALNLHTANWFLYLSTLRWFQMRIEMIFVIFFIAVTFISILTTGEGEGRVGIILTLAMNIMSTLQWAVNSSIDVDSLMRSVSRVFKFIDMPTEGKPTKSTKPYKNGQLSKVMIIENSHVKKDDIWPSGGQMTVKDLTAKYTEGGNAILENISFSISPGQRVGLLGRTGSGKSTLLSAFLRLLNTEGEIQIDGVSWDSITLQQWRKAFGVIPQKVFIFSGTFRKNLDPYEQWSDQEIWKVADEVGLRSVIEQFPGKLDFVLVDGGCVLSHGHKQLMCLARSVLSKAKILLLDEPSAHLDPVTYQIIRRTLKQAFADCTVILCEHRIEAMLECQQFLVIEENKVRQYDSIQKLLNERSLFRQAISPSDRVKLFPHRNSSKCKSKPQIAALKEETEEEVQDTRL

For the compound `CC(C)(CO)c1cc2cc(NC(=O)[C@@]3(C)COc4cc5c(cc43)OC(F)(F)O5)c(F)cc2n1C[C@@H](O)CC#N` [Example 179, (7R)—N-{1-[(2S)-3-cyano-2-hydroxypropyl]-6-fluoro-2-(1-hydroxy-2-methylpropan-2-yl)-1H-indol-5-yl}-2,2-difluoro-7-methyl-6,7-dihydro-2H-furo[2,3-f][1,3]benzodioxole-7-carboxamide], the EC50 in experiment [1] turned out to be 0.147 µM; in experiment [2], 0.28 µM. Besides, the figures for the “Maximum % activity (%)” value in experiment [1] (setting [3]) and in experiment [2] were 70% and 108%, respectively.
The corresponding values for `Cc1ccc(NC(=O)C2(C)COc3cc4c(cc32)OC(F)(F)O4)nc1-c1cccc(C(=O)O)c1` (stereo not shown) [Example 2, 3-{6-[(2,2-difluoro-7-methyl-6,7-dihydro-2H-furo[2,3-f][1,3]benzodioxole-7-carbonyl)amino]-3-methylpyridin-2-yl}benzoic acid] are 0.242 µM, 0.3 µM, 99% and 159%.
For `C[C@]1(C(=O)N[C@@H]2C[C@H](c3ccc(C(=O)O)cn3)Oc3cc(OC(F)F)ccc32)COc2cc3c(cc21)OC(F)(F)O3` [Example 151, 6-[(2R,4R)-7-(difluoromethoxy)-4-{[(7R)-2,2-difluoro-7-methyl-6,7-dihydro-2H-furo[2,3-f][1,3]benzodioxole-7-carbonyl]amino}-3,4-dihydro-2H-1-benzopyran-2-yl]pyridine-3-carboxylic acid], in that order: 0.0076 µM, 0.012 µM, 93% and 132%.
The corresponding values for `COc1ccc2c(c1)O[C@@H](c1ccc(=O)[nH]n1)C[C@H]2NC(=O)[C@@]1(C)COc2cc3c(cc21)OC(F)(F)O3` [Example 197, (7R)-2,2-difluoro-N-[(2R,4R)-7-methoxy-2-(6-oxo-1,6-dihydropyridazin-3-yl)-3,4-dihydro-2H-1-benzopyran-4-yl]-7-methyl-6,7-dihydro-2H-furo[2,3-f][1,3]benzodioxole-7-carboxamide] are 0.006 µM, 0.04 µM, 105% and 130%.
On to `C[C@]1(C(=O)Nc2cc3cc(C4(CO)CCC4)n(C[C@@H](O)CO)c3cc2F)COc2cc3c(cc21)OC(F)(F)O3` [Example 134, (7R)—N-{1-[(2R)-2,3-dihydroxypropyl]-6-fluoro-2-[1-(hydroxymethyl)cyclobutyl]-1H-indol-5-yl}-2,2-difluoro-7-methyl-6,7-dihydro-2H-furo[2,3-f][1,3]benzodioxole-7-carboxamide], for which the EC50 is 0.197 µM in experiment [1] and 0.48 µM in experiment [2]. Also, the “Maximum % activity (%)” value in experiment [1] (setting [3]) is given as 79%; in experiment [2] it was 109%.
For `C[C@]1(C(=O)N[C@@H]2C[C@H](c3ccc(C(=O)O)cn3)Oc3cc(OC(F)(F)F)ccc32)COc2cc3c(cc21)OC(F)(F)O3` [Example 145, 6-[(2R,4R)-4-{[(7R)-2,2-difluoro-7-methyl-6,7-dihydro-2H-furo[2,3-f][1,3]benzodioxole-7-carbonyl]amino}-7-(trifluoromethoxy)-3,4-dihydro-2H-1-benzopyran-2-yl]pyridine-3-carboxylic acid], in that order: 0.000831 µM, 0.003 µM, 91% and 118%.
For `C[C@]1(C(=O)N[C@@H]2C[C@H]([C@H]3CC[C@H](C(=O)NCCO)CC3)Oc3cc(OC(F)(F)F)ccc32)COc2cc3c(cc21)OC(F)(F)O3` [Example 261, (7R)-2,2-difluoro-N-[(2R,4R)-2-{trans-4-[(2-hydroxyethyl)carbamoyl]cyclohexyl}-7-(trifluoromethoxy)-3,4-dihydro-2H-1-benzopyran-4-yl]-7-methyl-6,7-dihydro-2H-furo[2,3-f][1,3]benzodioxole-7-carboxamide], in that order: 0.021 µM, 0.06 µM, 104% and 157%.
For `COc1ccc2c(c1)O[C@@H]([C@H]1CC[C@H](C(=O)N3C[C@H](O)[C@@H](O)C3)CC1)C[C@H]2NC(=O)[C@@]1(C)COc2cc3c(cc21)OC(F)(F)O3` [Example 281, (7R)—N-[(2R,4R)-2-{trans-4-[(3S,4S)-3,4-dihydroxypyrrolidine-1-carbonyl]cyclohexyl}-7-methoxy-3,4-dihydro-2H-1-benzopyran-4-yl]-2,2-difluoro-7-methyl-6,7-dihydro-2H-furo[2,3-f][1,3]benzodioxole-7-carboxamide], in that order: 0.117 µM, 0.47 µM, 134% and 154%.
For `COc1ccc2c(c1)O[C@@H](c1ccc(C(=O)O)cn1)C[C@H]2NC(=O)[C@@]1(C)COc2cc3c(cc21)OC(F)(F)O3` [Example 89, 6-[(2R,4R)-4-{[(7R)-2,2-difluoro-7-methyl-6,7-dihydro-2H-furo[2,3-f][1,3]benzodioxole-7-carbonyl]amino}-7-methoxy-3,4-dihydro-2H-1-benzopyran-2-yl]pyridine-3-carboxylic acid], the “Maximum % activity (%)” value in experiment [1] (testing concentration 1 μM) is given as 84%. Moreover, in experiment [2], the midpoint of the response, the EC50, lay at 0.01 µM and the “Maximum % activity (%)” value amounted to 112%.
On to `C[C@]1(C(=O)N[C@@H]2C[C@H]([C@H]3CC[C@H](C(=O)O)CC3)Oc3cc(OC(F)(F)F)ccc32)COc2cc3c(cc21)OC(F)(F)O3` [Example 150, trans-4-[(2R,4R)-4-{[(7R)-2,2-difluoro-7-methyl-6,7-dihydro-2H-furo[2,3-f][1,3]benzodioxole-7-carbonyl]amino}-7-(trifluoromethoxy)-3,4-dihydro-2H-1-benzopyran-2-yl]cyclohexane-1-carboxylic acid], for which the EC50 was 0.01 µM in experiment [1] and 0.026 µM in experiment [2]. In addition, the “Maximum % activity (%)” value is 94% in experiment [1] (setting [3]) and 145% in experiment [2].
The corresponding values for `COc1ccc2c(c1)O[C@@H](c1ccc(C(=O)N3CCOCC3)cn1)C[C@H]2NC(=O)[C@@]1(C)COc2cc3c(cc21)OC(F)(F)O3` [Example 220, (7R)-2,2-difluoro-N-{(2R,4R)-7-methoxy-2-[5-(morpholine-4-carbonyl)pyridin-2-yl]-3,4-dihydro-2H-1-benzopyran-4-yl}-7-methyl-6,7-dihydro-2H-furo[2,3-f][1,3]benzodioxole-7-carboxamide] are 0.01 µM, 0.01 µM, 94% and 112%.

Broadly, the EC50 is the midpoint of the concentration-response curve.

Source of the values: patent US9840513B2 (AbbVie S.à.r.l., priority 2015, dated 2017).
